The results in this text go back to patent US20220073471A1 (JIANGSU HENGRUI MEDICINE CO., LTD., priority 2019, published 2022).

Series [1] concerns the target T1, Nav1.8 ion channel stably expressed on HEK293 cells (Homo sapiens, UniProt Q9Y5Y9).
T1 construct: expressed in transfected cells; host or cells: HEK293
Nature of the series: Inhibitory activity on Nav1.8, manual patch clamp. The class given is cell-based. As to conditions: resting, clamped at -80 mV, 1 μM TTX, read-out: IC50 on inhibiting the Nav1.8 channel activity. An excerpt: The purpose of the experiment is to investigate the effect of the compounds on Nav1.8 ion channel in an in vitro experiment, wherein the Nav1.8 ion channel is stably expressed on HEK293 cells. After the Nav1.8 current becomes stable, the Nav1.8 currents before and after the administration of the compound are compared so as to obtain the effect of the compound on the Nav1.8 ion channel.
Except for NaOH and KOH used for acid titration and base titration, all the compounds used for formulating the extracellular fluid and intracellular fluid were purchased from Sigma (St. Louis, Mo.). Extracellular fluid (mM): NaCl, 137; KCl, 4; CaCl2), 1.8; MgCl2, 1; HEPES, 10; glucose, 10; pH 7.4 (NaOH titration). Intracellular fluid (mM): aspartic acid, 140; MgCl2, 2; EGTA, 11; HEPES, 10; pH 7.2 (CsOH titration). All solutions of test compound and control compound contained 1 μM TTX.
The test compound was dissolved in dimethyl sulfoxide (DMSO) at a stock concentration of 9 mM. The stock solution of the test compound was dissolved in the extracellular fluid on the day of the test and formulated into the required concentration.
1) The compound was formulated into solutions with specified concentrations, the solutions were added to the pipelines respectively in order from low to high concentration, and the pipelines were marked.
2) The cell was transferred to the perfusion tank. A positive pressure was applied to the electrode. The tip of the electrode touched the cell. The three-way valve of the air extracting device was adjusted to a three-way state. A negative pressure was applied to the electrode, so that a high-resistance seal was formed between the electrode and the cell.
The negative pressure was applied continuously, thereby causing the cell membrane to rupture and forming a current path.
3) After the current for rupturing the cell membrane became stable, perfusion of different concentrations was carried out in sequence. Once the current was stable for at least one minute, perfusion of the next concentration was carried out.
4) The perfusion tank was cleaned. The perfusion tank was rinsed with the drug solutions in order from high to low concentration, and the rinse duration for each concentration of drug solution was 20 seconds. The perfusion tank was finally rinsed with the extracellular fluid for 1 minute.
The cell was clamped at −80 mV. The cell was depolarized to 10 mV with a square wave lasting 10 milliseconds to obtain the Nav1.8 current. This procedure was repeated every 5 seconds. The maximum current caused by the square wave was measured. After the current became stable, the test compound was perfused. After the response became stable, the blocking intensity was calculated.
The data was stored in the computer system for analysis. Data collection and analysis were carried out by pCLAMP 10 (Molecular Devices, Union City, Calif.), and the analysis results were reviewed by the administrator. Stable current means that the current changes within a limited range over time. The magnitude of stable current was used to calculate the effect of the compound at the concentration.
(In patch-clamp work, channel activity is measured electrically.)

The nature of series [2]: Pharmacokinetics assay in rats after intragastrical administration. The class given is in vivo. As to conditions: both sexes, Sprague-Dawley (SD), rat, plasma, po, 2 mg/kg; for Vd/F: read-out: Apparent distribution volume Vz/F; for AUC: read-out: Area under curve AUC; for bioavailability: read-out: Bioavailability F; for CL/F: read-out: Clearance CL/F; for half-life: read-out: Half-life T½ (converted); for Cmax: read-out: Plasma concentration Cmax; for MRT: read-out: Residence time MRT. How it is done: Rats were used as test animals. The drug concentration in plasma at different time points was determined by LC/MS/MS method after intragastrical administration of the compounds of Example 2, Example 11, Example 12, Example 15, Example 31 and Example 33 to rats. The pharmacokinetic behavior of the compounds of the present disclosure was studied and evaluated in rats.
Twenty-four healthy adult SD rats (half male and half female, equally divided into six groups, four rats per group) were purchased from Shanghai Jiesijie Laboratory Animal Co., LTD.
A certain amount of the test compound was weighed, to which 5% of DMSO, 5% of tween 80 and 90% of normal saline were added to prepare a 0.2 mg/mL colorless, clear and transparent solution.
After an overnight fast, SD rats were intragastrically administered the test compound at an administration dose of 2.0 mg/kg and an administration volume of 10.0 mL/kg.
The rats were intragastrically administered the compounds of Example 2, Example 11, Example 12, Example 15, Example 31 and Example 33. 0.2 ml of blood was taken from the orbit before the administration and at 0.5, 1.0, 2.0, 4.0, 6.0, 8.0, 11.0 and 24.0 hours after the administration. The samples were stored in heparinized tubes, and centrifuged for 10 minutes at 10000 rpm and 4° C. to separate the blood plasma. The plasma samples were stored at −20° C. The rats were fed 2 hours after the administration.
The content of the test compound in the plasma of rats after intragastrical administration of the test compound at different concentrations was determined: 25 μL of rat plasma at each time point after the administration was taken, to which 30 μL of the internal standard solution and 175 μL of acetonitrile were added. The resulting solution was vortex-mixed for 5 minutes, and centrifuged for 10 minutes (3700 rpm). 0.5 μL of the supernatant was taken from the plasma samples for LC/MS/MS analysis.

T1 sequence (Q9Y5Y9 whole entry): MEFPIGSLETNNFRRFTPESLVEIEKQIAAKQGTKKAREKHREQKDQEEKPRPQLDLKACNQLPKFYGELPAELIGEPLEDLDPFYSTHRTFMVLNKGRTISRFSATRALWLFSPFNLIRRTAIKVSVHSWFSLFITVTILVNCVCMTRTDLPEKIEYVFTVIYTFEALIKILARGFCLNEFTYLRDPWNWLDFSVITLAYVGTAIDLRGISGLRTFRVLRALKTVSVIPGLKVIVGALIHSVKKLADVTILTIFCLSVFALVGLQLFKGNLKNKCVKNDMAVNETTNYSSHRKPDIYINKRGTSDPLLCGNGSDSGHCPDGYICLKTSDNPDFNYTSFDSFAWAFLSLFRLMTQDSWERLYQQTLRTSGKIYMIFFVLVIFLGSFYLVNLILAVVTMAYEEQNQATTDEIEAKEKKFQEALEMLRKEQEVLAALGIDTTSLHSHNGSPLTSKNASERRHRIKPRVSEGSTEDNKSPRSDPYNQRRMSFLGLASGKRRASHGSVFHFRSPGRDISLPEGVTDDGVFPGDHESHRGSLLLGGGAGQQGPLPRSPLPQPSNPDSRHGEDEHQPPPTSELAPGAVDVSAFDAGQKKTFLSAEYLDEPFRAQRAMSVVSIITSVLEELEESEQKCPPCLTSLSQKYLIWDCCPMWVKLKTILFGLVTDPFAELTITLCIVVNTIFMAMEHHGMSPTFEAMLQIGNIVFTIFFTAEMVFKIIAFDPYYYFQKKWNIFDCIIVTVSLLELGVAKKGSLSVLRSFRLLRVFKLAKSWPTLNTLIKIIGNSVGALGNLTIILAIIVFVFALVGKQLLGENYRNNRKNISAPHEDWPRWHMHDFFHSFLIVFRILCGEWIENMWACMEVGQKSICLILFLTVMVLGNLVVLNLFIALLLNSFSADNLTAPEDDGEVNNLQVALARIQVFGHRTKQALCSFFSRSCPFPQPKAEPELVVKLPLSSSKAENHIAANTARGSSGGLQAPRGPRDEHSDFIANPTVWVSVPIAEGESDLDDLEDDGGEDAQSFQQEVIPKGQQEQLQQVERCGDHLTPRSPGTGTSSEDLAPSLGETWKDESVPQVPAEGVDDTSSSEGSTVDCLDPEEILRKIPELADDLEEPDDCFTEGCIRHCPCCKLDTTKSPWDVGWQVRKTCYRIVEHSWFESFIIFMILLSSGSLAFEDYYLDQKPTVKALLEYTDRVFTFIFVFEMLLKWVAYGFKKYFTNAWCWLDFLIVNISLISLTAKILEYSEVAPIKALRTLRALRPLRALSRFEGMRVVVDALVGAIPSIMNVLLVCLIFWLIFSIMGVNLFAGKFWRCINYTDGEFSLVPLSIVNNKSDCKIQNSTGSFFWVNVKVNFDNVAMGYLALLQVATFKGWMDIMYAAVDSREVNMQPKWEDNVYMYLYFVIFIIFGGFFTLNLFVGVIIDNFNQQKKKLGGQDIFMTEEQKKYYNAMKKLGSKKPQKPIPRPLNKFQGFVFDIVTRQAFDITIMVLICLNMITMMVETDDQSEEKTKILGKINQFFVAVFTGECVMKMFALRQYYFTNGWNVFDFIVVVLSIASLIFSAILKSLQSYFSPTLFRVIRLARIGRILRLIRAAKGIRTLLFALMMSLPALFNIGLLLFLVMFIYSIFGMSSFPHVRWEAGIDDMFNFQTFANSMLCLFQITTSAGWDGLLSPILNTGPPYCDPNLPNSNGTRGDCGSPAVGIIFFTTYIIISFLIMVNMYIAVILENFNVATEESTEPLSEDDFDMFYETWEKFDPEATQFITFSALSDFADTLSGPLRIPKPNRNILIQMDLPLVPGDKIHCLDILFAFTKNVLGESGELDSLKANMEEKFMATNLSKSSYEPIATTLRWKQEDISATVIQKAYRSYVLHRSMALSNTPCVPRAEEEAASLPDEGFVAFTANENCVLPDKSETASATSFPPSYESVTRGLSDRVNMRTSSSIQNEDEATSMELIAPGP

Regarding `O=C(Nc1cn[nH]c(=O)c1)c1cc(Cl)c(C(F)(F)F)cc1Oc1ccc(F)cc1C1CC1` [Example 31, 5-Chloro-2-(2-cyclopropyl-4-fluorophenoxy)-N-(6-oxo-1,6-dihydropyridazin-4-yl)-4-(trifluoromethyl)benzamide], in series [1], the IC50 (commonly the concentration that gives 50% inhibition) is 0.94 nM. In addition, in series [2], the Vd/F was 5.44 ± 0.705 L/kg; the AUC (as a rule, concentration integrated over time) was 5620 ± 1230 ng·h/mL; the bioavailability was found to be 66%; the CL/F came out at 3.77 ± 2.7 mL/min/kg. Moreover, in series [2], the half-life (commonly how long it takes for the measured level to halve) is 33.3 ± 34.8 h; the Cmax was 360 ± 65 ng/mL; the MRT (in general, the average time that molecules of a dose stay in the body) was 48.3 ± 50.3 h.
Turning to `Cc1cc(F)ccc1Oc1cc(C(F)(F)F)c(Br)cc1C(=O)Nc1cn[nH]c(=O)c1` [Example 33, 5-Bromo-2-(4-fluoro-2-methylphenoxy)-N-(6-oxo-1,6-dihydropyridazin-4-yl)-4-(trifluoromethyl)benzamide], in series [1], the IC50 worked out at 0.86 nM. In series [2], the Vd/F came to 3.99 ± 0.788 L/kg, the AUC is 5550 ± 3020 ng·h/mL, the bioavailability is 99% and the CL/F is 6.4 ± 5.57 mL/min/kg. In addition, in series [2], the half-life is 18.6 ± 17.5 h, the Cmax turned out to be 382 ± 88 ng/mL and the MRT stood at 27.7 ± 24.2 h.
In the case of `[2H]C([2H])([2H])Oc1cc(F)ccc1Oc1cc(C(F)(F)F)c(Cl)cc1C(=O)Nc1cn[nH]c(=O)c1` [Example 35, 5-Chloro-2-(4-fluoro-2-(methoxy-d3)phenoxy)-N-(6-oxo-1,6-dihydropyridazin-4-yl)-4-(trifluoromethyl)benzamide], the IC50 in series [1] was found to be 0.54 nM. Besides, in series [2], the Vd/F was determined as 5.01 ± 0.875 L/kg, the AUC is 4330 ± 910 ng·h/mL, the bioavailability was determined as 107% and the CL/F worked out at 7.93 ± 1.47 mL/min/kg. Also, in series [2], the half-life is 7.5 ± 1.92 h, the Cmax was 392 ± 43 ng/mL and the MRT is 10.6 ± 2.3 h.
Consider `Cc1cc(F)ccc1Oc1cc(C(F)(F)F)c(Cl)cc1C(=O)Nc1cn[nH]c(=O)c1` [Example 2, 5-Chloro-2-(4-fluoro-2-methylphenoxy)-N-(6-oxo-1,6-dihydropyridazin-4-yl)-4-(trifluoromethyl)benzamide], for which the IC50 in series [1] turned out to be 1.3 nM. In addition, in series [2], the Vd/F came to 4.71 ± 1.29 L/kg, the AUC was determined as 5960 ± 4280 ng·h/mL, the bioavailability came out at 149% and the CL/F stood at 6.24 ± 6.29 mL/min/kg. Moreover, in series [2], the half-life is 47 ± 54.6 h, the Cmax turned out to be 399 ± 153 ng/mL and the MRT worked out at 68.2 ± 78.3 h.
Take `O=C(Nc1cn[nH]c(=O)c1)c1cc(Cl)c(C(F)(F)F)cc1Oc1ccc(F)cc1OC(F)(F)F` [Example 15, 5-Chloro-2-(4-fluoro-2-(trifluoromethoxy)phenoxy)-N-(6-oxo-1,6-dihydropyridazin-4-yl)-4-(trifluoromethyl)benzamide]: the concentration for half-maximal inhibition (IC50) in series [1] was 4.7 nM. Moreover, in series [2], the Vd/F amounted to 7.15 ± 0.682 L/kg, the AUC came to 5690 ± 552 ng·h/mL, the bioavailability turned out to be 94% and the CL/F was determined as 1.46 ± 0.11 mL/min/kg. Besides, in series [2], the half-life was 56.7 ± 6.6 h, the Cmax turned out to be 295 ± 44 ng/mL and the MRT worked out at 82.4 ± 10.2 h.
For the compound `COc1cc(F)ccc1Sc1cc(C(F)(F)F)c(Cl)cc1C(=O)Nc1cn[nH]c(=O)c1` [Example 17, 5-Chloro-2-((4-fluoro-2-methoxyphenyl)thio)-N-(6-oxo-1,6-dihydropyridazin-4-yl)-4-(trifluoromethyl)benzamide], the IC50 in series [1] was determined as 18 nM.
`O=C(Nc1cn[nH]c(=O)c1)c1cc(Cl)c(C(F)(F)F)cc1Oc1ccc(F)cc1OC1CC1` [Example 12, 5-Chloro-2-(2-cyclopropoxy-4-fluorophenoxy)-N-(6-oxo-1,6-dihydropyridazin-4-yl)-4-(trifluoromethyl)benzamide]: the IC50 in series [1] was determined as 0.26 nM. For the same compound, in series [2], the Vd/F came out at 4.17 ± 0.587 L/kg, the AUC was 5980 ± 1130 ng·h/mL, the bioavailability is 111% and the CL/F turned out to be 4.3 ± 1.65 mL/min/kg. Besides, in series [2], the half-life was 13.2 ± 7.8 h, the Cmax was found to be 435 ± 64 ng/mL and the MRT amounted to 19.8 ± 10.4 h.
On to `COc1cc(F)ccc1Oc1cc(C(F)(F)F)ccc1C(=O)Nc1cn[nH]c(=O)c1` [Example 8, 2-(4-Fluoro-2-methoxyphenoxy)-N-(6-oxo-1,6-dihydropyridazin-4-yl)-4-(trifluoromethyl)benzamide], for which, in series [1], the IC50 came out at 45.8 nM.
Take `Cc1cc(F)ccc1Oc1cc(C(F)(F)C(F)(F)F)ccc1C(=O)Nc1cn[nH]c(=O)c1` [Example 5, 2-(4-Fluoro-2-methylphenoxy)-N-(6-oxo-1,6-dihydropyridazin-4-yl)-4-(perfluoroethyl)benzamide]: the IC50 in series [1] worked out at 23.7 nM.
For `COc1cc(F)ccc1Oc1cc(C(F)(F)F)c(Cl)cc1C(=O)Nc1cn[nH]c(=O)c1` [Example 11, 5-Chloro-2-(4-fluoro-2-methoxyphenoxy)-N-(6-oxo-1,6-dihydropyridazin-4-yl)-4-(trifluoromethyl)benzamide], the IC50 in series [1] amounted to 1.3 nM. For the same compound, in series [2], the Vd/F was 5.33 ± 0.72 L/kg, the AUC worked out at 1230 ± 621 ng·h/mL, the bioavailability came out at 98% and the CL/F is 32.3 ± 15.2 mL/min/kg. For the same compound, in series [2], the half-life is 2.3 ± 1.14 h and the Cmax came to 218 ± 103 ng/mL.
With `O=C(Nc1cn[nH]c(=O)c1)c1cc(Cl)c(C(F)(F)F)cc1Oc1ccc(F)cc1OC1CCCC1` [Example 40, 5-Chloro-2-(2-(cyclopentyloxy)-4-fluorophenoxy)-N-(6-oxo-1,6-dihydropyridazin-4-yl)-4-(trifluoromethyl)benzamide], in series [1], the IC50 stood at 0.32 nM.
Take `O=C(Nc1cn[nH]c(=O)c1)c1cc(Cl)c(C(F)(F)F)cc1Oc1ccc(F)cc1F` [Example 46, 5-Chloro-2-(2,4-difluorophenoxy)-N-(6-oxo-1,6-dihydropyridazin-4-yl)-4-(trifluoromethyl)benzamide]: the IC50 in series [1] is 8.95 nM.
As to `Cc1cc(F)ccc1Oc1ccc(C(F)(F)F)cc1C(=O)Nc1cn[nH]c(=O)c1` [Example 7, 2-(4-Fluoro-2-methylphenoxy)-N-(6-oxo-1,6-dihydropyridazin-4-yl)-5-(trifluoromethyl)benzamide], the IC50 in series [1] amounted to 30.8 nM.
`Cc1cc(F)ccc1Oc1cc(C(F)(F)F)c(C)cc1C(=O)Nc1cn[nH]c(=O)c1` [Example 34, 2-(4-Fluoro-2-methylphenoxy)-5-methyl-N-(6-oxo-1,6-dihydropyridazin-4-yl)-4-(trifluoromethyl)benzamide]: the IC50 in series [1] was 11.5 nM.
Same read-out and setting: the value for `Cc1cc(Oc2ccc(F)cc2C)c(C(=O)Nc2cn[nH]c(=O)c2)cc1Cl` [Example 28, 5-Chloro-2-(4-fluoro-2-methylphenoxy)-4-methyl-N-(6-oxo-1,6-dihydropyridazin-4-yl)benzamide] was 5.2 nM.
